Target: T1, EGFR (Homo sapiens, UniProt P00533)
T1 construct: endogenous in cells; host or cells: A431 cells (lysate, captured with SUMO1 anti-EGFR antibody)
Assay: Biochemical EGFR Assay
Set-up: concentration or dose not given beside the values
Experimental: This assay measures the in vitro kinase activity of EGFR using ELISA.
1. Corning 96-well Elisa plates (Corning Catalog No. 25805-96).
2. SUMO1 monoclonal anti-EGFR antibody (Biochemistry Lab, SUGEN, Inc.).
3. PBS (Dulbecco's Phosphate-Buffered Saline, Gibco Catalog No. 450-1300EB).
6. A431 cell lysate (Screening Lab, SUGEN, Inc.)
9. Adenosine-5′-triphosphate (ATP, from Equine muscle, Sigma Cat. No. A-5394).
Prepare a 1.0 mM solution in dH2O. This reagent should be made up immediately prior to use and kept on ice.
Prepare a 1.0 M stock solution in dH2O.
11. ATP/MnCl2 phosphorylation mix
This reagent should be prepared immediately before use and kept on ice
12. NUNC 96-well V bottom polypropylene plates (Applied Scientific Cat. No. AS-72092).
13. Ethylenediaminetetraacetic acid (EDTA)
Prepare 200 mM working solution in dH2O. Adjust to pH 8.0 with 10 N NaOH.
14. Rabbit polyclonal anti-phosphotyrosine serum (Biochemistry Lab, SUGEN, Inc.)
15. Goat anti-rabbit IgG peroxidase conjugate (Biosource Cat. No. ALI0404)
16. ABTS (2,2′-azino-bis(3-ethylbenzthiazoline-6-sulfonic acid), Sigma Cat. No. A-1888).
Mix first two ingredients in about 900 ml dH2O, adjust pH to 4.0 with phosphoric acid. Add ABTS, cover, let sit about 0.5 hr., filter. The solution should be kept in the dark at 4° C. until ready to use.
17. Hydrogen peroxide 30% solution (Fisher Cat. No. H325)
Mix 15 ml ABTS solution and 2.0 μl H2O2. Prepare 5 minutes before use.
1. Coat Corning 96 well ELISA plates with 0.5 μg SUMO1 in 100 μl PBS per well, store overnight at 4° C.
2. Remove unbound SUMO1 from wells by inverting plate to remove liquid. Wash 1× with dH2O. Pat the plate on a paper towel to remove excess liquid.
3. Add 150 μl of Blocking Buffer to each well. Incubate for 30 min. at room temperature with shaking.
4. Wash plate 3× with deionized water, then once with TBST. Pat plate on a paper towel to remove excess liquid and bubbles.
5. Dilute lysate in PBS (7 μg lysate/100 μl PBS)
6. Add 100 μl of diluted lysate to each well. Shake at room temperature for 60 min.
7. Wash plates as described in 4, above.
8. Add 120 μl TBS to ELISA plate containing captured EGFR.
9. Dilute test compound 1:10 in TBS in 96-well polypropylene plates (ie. 10 μl compound+90 μl TBS).
10. Add 13.5 μl diluted test compound to ELISA plate.
11. Incubate for 30 minutes while shaking at room temperature.
13. After 5 minutes, stop reaction by adding 16.5 μl of 200 mM EDTA (pH 8.0) to each well, shaking continuously. After the EDTA has been added, shake for 1 min.
14. Wash 4× with deionized water, twice with TBST.
15. Add 100 μl anti-phosphotyrosine (1:3000 dilution in TBST) per well. Incubate 30-45 min. at room temperature, with shaking.
16. Wash as described in 4, above.
17. Add 100 μl Biosource Goat anti-rabbit IgG peroxidase conjugate (1:2000 dilution in TBST) to each well. Incubate 30 min. at room temperature, with shaking.
18. Wash as described in 4, above.
19. Add 100 μl of ABTS/H2O2 solution to each well.
20. Incubate 5 to 10 minutes with shaking. Remove any bubbles.
21. If necessary stop reaction with the addition of 100 μl 0.2 M HCl per well.
22. Read assay on Dynatech MR7000 ELISA reader. Test Filter: 410 nM Reference Filter: 630 nM

T1 sequence (P00533 25-1210): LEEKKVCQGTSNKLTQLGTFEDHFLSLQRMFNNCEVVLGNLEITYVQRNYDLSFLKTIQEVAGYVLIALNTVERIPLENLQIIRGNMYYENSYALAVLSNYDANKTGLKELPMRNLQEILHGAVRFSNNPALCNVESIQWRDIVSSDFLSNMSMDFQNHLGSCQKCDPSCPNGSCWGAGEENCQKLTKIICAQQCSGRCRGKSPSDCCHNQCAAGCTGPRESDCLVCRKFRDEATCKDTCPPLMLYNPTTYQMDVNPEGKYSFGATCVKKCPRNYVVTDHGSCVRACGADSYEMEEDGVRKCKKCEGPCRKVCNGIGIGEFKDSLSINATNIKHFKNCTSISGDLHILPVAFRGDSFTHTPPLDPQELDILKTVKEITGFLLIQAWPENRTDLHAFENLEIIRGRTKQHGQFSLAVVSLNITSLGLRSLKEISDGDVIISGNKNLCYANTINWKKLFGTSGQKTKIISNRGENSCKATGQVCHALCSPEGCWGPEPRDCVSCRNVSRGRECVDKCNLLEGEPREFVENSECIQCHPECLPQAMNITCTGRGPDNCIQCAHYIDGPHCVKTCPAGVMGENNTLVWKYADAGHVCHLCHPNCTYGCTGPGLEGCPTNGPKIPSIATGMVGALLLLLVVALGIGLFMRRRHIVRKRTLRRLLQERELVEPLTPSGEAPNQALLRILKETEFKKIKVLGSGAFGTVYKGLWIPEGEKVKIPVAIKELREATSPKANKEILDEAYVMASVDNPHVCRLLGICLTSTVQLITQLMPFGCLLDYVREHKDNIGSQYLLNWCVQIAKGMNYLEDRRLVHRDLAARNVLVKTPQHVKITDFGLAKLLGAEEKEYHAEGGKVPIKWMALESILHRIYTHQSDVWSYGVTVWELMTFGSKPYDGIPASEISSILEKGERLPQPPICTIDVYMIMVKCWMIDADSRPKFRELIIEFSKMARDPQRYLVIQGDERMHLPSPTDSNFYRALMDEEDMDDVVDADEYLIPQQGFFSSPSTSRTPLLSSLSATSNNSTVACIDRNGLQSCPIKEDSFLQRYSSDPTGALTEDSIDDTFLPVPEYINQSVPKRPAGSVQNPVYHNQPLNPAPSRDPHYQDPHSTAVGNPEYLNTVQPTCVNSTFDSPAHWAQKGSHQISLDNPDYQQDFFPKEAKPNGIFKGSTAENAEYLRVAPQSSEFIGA

Structure (SMILES)	Biochem EGFR % Inhibition (P.167)
Cc1c(Br)cc(Br)c2c1C(=Cc1ccc(F)cc1)C(=O)N2 [10717/H05]	−2.0%
Cc1c(Br)cc(Br)c2c1C(=Cc1c[nH]c3ccccc13)C(=O)N2 [10717/H06]	−16.8%
Cc1ccc(C=C2C(=O)Nc3c(Br)cc(Br)c(C)c32)s1 [10717/H07]	91.2%
Cc1c(Br)cc(Br)c2c1C(=Cc1ccc(Br)cc1)C(=O)N2 [10717/H08]	33.4%
Cc1c(Br)cc(Br)c2c1C(=Cc1ccc[nH]1)C(=O)N2 [10717/H09]	5.4%
COc1cccc(O)c1C=C1C(=O)Nc2c(Br)cc(Br)c(C)c21 [10717/H10]	0.5%
Cc1[nH]c(C=C2C(=O)Nc3c(Br)cc(Br)c(C)c32)c(Br)c1Br [10717/H11]	55.6%
Cc1c(Br)cc(Br)c2c1C(=Cc1ccc(Br)o1)C(=O)N2 [10726/H05]	2.2%
Cc1cn(C)cc1C=C1C(=O)Nc2c(Br)cc(Br)c(C)c21 [10726/H06]	−9.2%
Cc1c(Br)cc(Br)c2c1C(=Cc1cc(O)c3c(c1O)CCCC3)C(=O)N2 [10726/H07]	31.2%
Cc1c(Br)cc(Br)c2c1C(=C1C(=O)Nc3ccc(F)cc31)C(=O)N2 [10726/H08]	−16.6%
Cc1c(Br)cc(Br)c2c1C(=C1C(=O)Nc3ccccc31)C(=O)N2 [10726/H09]	−0.1%
CCc1ccc(C=C2C(=O)Nc3c(Br)cc(Br)c(C)c32)s1 [10726/H10]	12.0%
COc1ccc(C=C2C(=O)Nc3c(Br)cc(Br)c(C)c32)cc1 [10726/H11]	1.5%
CCN(CC)c1ccc(C=C2C(=O)Nc3c(Br)cc(Br)c(C)c32)cc1 [10727/H02]	−37.1%
CCc1cc(CC)c(C=C2C(=O)Nc3c(Br)cc(Br)c(C)c32)[nH]1 [10727/H03]	4.5%
Cc1c(Br)cc(Br)c2c1C(=Cc1cc(Cl)cc(Br)c1O)C(=O)N2 [10727/H04]	19.2%
Cc1c(Br)cc(Br)c2c1C(=Cc1ccccc1Sc1ccc(Cl)cc1)C(=O)N2 [10727/H05]	0.4%
Cc1c(Br)cc(Br)c2c1C(=Cc1cc3c(cc1Cl)OCO3)C(=O)N2 [10727/H06]	−35.8%
Cc1c(Br)cc(Br)c2c1C(=Cc1coc3ccccc3c1=O)C(=O)N2 [10727/H07]	−17.3%

Structure (SMILES)	Biochem EGFR % Inhibition (P.167)
Cc1c(Br)cc(Br)c2c1C(=Cc1cccc(C#N)c1)C(=O)N2 [10727/H08]	−8.0%
Cc1c(Br)cc(Br)c2c1C(=Cc1ccc(C#N)cc1)C(=O)N2 [10727/H09]	−6.1%
Cc1c(Br)cc(Br)c2c1C(=Cc1cc(O)ccc1O)C(=O)N2 [10727/H10]	83.6%
COc1cccc(C=C2C(=O)Nc3c(Br)cc(Br)c(C)c32)c1OC [10727/H11]	−3.5%
COc1ccc(OC)c(C=C2C(=O)Nc3c(Br)cc(Br)c(C)c32)c1 [10728/H02]	−36.6%
COc1cccc(OC)c1C=C1C(=O)Nc2c(Br)cc(Br)c(C)c21 [10728/H03]	3.5%
COc1cc(C=C2C(=O)Nc3c(Br)cc(Br)c(C)c32)cc(OC)c1 [10728/H04]	−0.6%
Cc1c(Br)cc(Br)c2c1C(=Cc1ccc3c(c1)Cc1ccccc1-3)C(=O)N2 [10728/H06]	−22.8%
Cc1c(Br)cc(Br)c2c1C(=Cc1cccc(C(F)(F)F)c1F)C(=O)N2 [10728/H07]	−25.8%
Cc1c(Br)cc(Br)c2c1C(=Cc1c(F)cccc1C(F)(F)F)C(=O)N2 [10728/H09]	−6.1%
Cc1c(Br)cc(Br)c2c1C(=Cc1ccccc1OCC(=O)O)C(=O)N2 [10728/H10]	−22.4%
COc1cc(C=C2C(=O)Nc3c(Br)cc(Br)c(C)c32)cc2c1OCO2 [10728/H11]	−25.6%
COc1ccc2ccccc2c1C=C1C(=O)Nc2c(Br)cc(Br)c(C)c21 [10729/H02]	−10.7%
COc1ccc(C=C2C(=O)Nc3c(Br)cc(Br)c(C)c32)c2ccccc12 [10729/H03]	30.3%
CSc1ccc(C=C2C(=O)Nc3c(Br)cc(Br)c(C)c32)cc1 [10729/H04]	−4.4%
Cc1ccsc1C=C1C(=O)Nc2c(Br)cc(Br)c(C)c21 [10729/H05]	−4.4%
Cc1c(Br)cc(Br)c2c1C(=Cc1cccc(Oc3ccccc3)c1)C(=O)N2 [10729/H06]	−10.3%
Cc1c(Br)cc(Br)c2c1C(=Cc1ccccn1)C(=O)N2 [10729/H07]	30.0%
Cc1c(Br)cc(Br)c2c1C(=Cc1cccnc1)C(=O)N2 [10729/H08]	8.7%
Cc1c(Br)cc(Br)c2c1C(=Cc1ccncc1)C(=O)N2 [10729/H09]	8.0%

Structure (SMILES)	Biochem EGFR % Inhibition (P.167)
Cc1c(Br)cc(Br)c2c1C(=Cc1ccc(N3CCCC3)cc1)C(=O)N2 [10729/H10]	2.1%
Cc1c(Br)cc(Br)c2c1C(=CC1C=CCCC1)C(=O)N2 (stereo not shown) [10729/H11]	0.8%
COc1ccc(C=C2C(=O)Nc3c(Br)cc(Br)c(C)c32)c(OC)c1OC [10730/H02]	12.6%
COc1cc(OC)c(OC)cc1C=C1C(=O)Nc2c(Br)cc(Br)c(C)c21 [10730/H03]	−3.4%
COc1cc(C=C2C(=O)Nc3c(Br)cc(Br)c(C)c32)cc(OC)c1OC [10730/H04]	−29.5%
CC(=O)n1cc(C=C2C(=O)Nc3c(Br)cc(Br)c(C)c32)c2ccccc21 [10730/H05]	−20.1%
Cc1c(Br)cc(Br)c2c1C(=Cc1ccc(-c3ccccc3Cl)o1)C(=O)N2 [10730/H07]	−3.2%
Cc1c(Br)cc(Br)c2c1C(=Cc1cc3ccccc3nc1Cl)C(=O)N2 [10730/H08]	−15.8%
COC1CC(C=C2C(=O)Nc3c(Br)cc(Br)c(C)c32)C(OC)O1 (stereo not shown) [10730/H10]	1.7%
Cc1cc(C=C2C(=O)Nc3c(Br)cc(Br)c(C)c32)oc1C [10730/H11]	26.4%
CCn1c2ccccc2c2cc(C=C3C(=O)Nc4c(Br)cc(Br)c(C)c43)ccc21 [10731/H02]	−9.5%
Cc1cc2occ(C=C3C(=O)Nc4c(Br)cc(Br)c(C)c43)c(=O)c2cc1C [10731/H03]	−1.5%
C=C(C)C1CC=C(C=C2C(=O)Nc3c(Br)cc(Br)c(C)c32)CC1 (stereo not shown) [10731/H04]	−1.7%
Cc1c(Br)cc(Br)c2c1C(=Cc1coc3ccc(C(C)C)cc3c1=O)C(=O)N2 [10731/H05]	−3.6%
Cc1ccc2occ(C=C3C(=O)Nc4c(Br)cc(Br)c(C)c43)c(=O)c2c1 [10731/H06]	−7.8%
Cc1c(Br)cc(Br)c2c1C(=Cc1coc3ccc([N+](=O)[O-])cc3c1=O)C(=O)N2 [10731/H07]	−1.7%
Cc1c(Br)cc(Br)c2c1C(=Cc1c[nH]c(=O)[nH]c1=O)C(=O)N2 [10731/H08]	−0.5%
COc1ccc2[nH]cc(C=C3C(=O)Nc4c(Br)cc(Br)c(C)c43)c2c1 [10731/H09]	−2.7%
